One series deals with Long-Evans male rats. In words: Acute toxicity in rat. Type of series: in vivo. How it is done: Toxicity of compound from example 9 was tested on 2-month-old Long-Evans male rats. Animals were randomly assigned to 4 groups per 7 animals each. The first group was injected i.p. with saline, the second group received i.p. cyclodextrine, the third group obtained received the compound from example 9 at a dose 1 mg/kg (dissolved in β-cyclodextrine) and the last group compound from example 9 at a dose 100 mg/kg (dissolved in β-cyclodextrine). Animals were monitored for the period of 5 days. At the end of the experiment macroscopic dissection was carried out and organs were weighted (brain, heart, liver, spleen and kidneys). Animals' weight, food and water consumption was monitored daily. At the same time the behavior and locomotor activity was observed and animals were inspected for detection of effusions, constipation, etc.

Another series deals with mice (ICR). In words: Depression-like behavior induced by repeated social defeat, open field. It is filed as in vivo, mouse. The note with it: 1 and 10 mg/kg orally, 30 min prior. How it is done:
Naive adult male mice (albino out-bred strain ICR, VELAZ s.r.o., Prague, Czech Republic, 30-37 g) were used in this study. Food and water were available ad libitum. Mice were housed either individually without any handling in self-cleaning cages with a grid floor (8×6×13 cm) or in groups of 17-20 in standard plastic cages (38×22×14 cm) with the floors covered with wooden shavings. After 3 weeks, each individually housed mouse was allowed 30 min adaptation in a Plexiglas neutral observation cage (20×20×30 cm) with clean wooden shavings before it was coupled with a group-housed male partner for 4 min/day. […] Animals were housed, and behavioural testing was performed in a different room during the light phase of the constant light-dark cycle with lights on at 6:00 and off at 18:00 h. Temperature was maintained at 21° C., and relative humidity was 50%. The mice were not handled except on the experimental days.
Group-housed males were used for the experiment. […] Over a 3-min testing period, the distance traveled, as a marker of locomotor/exploratory behaviour, in the open field was measured. […] Thirty minutes following the drug administration, the animal was placed into the open field arena and distance traveled was measured, as described before. […]

The test system of the next series is rats. Put plainly: AAPA task after MK-801 (animal model of schizophrenia). It is filed as in vivo, rat. The note with it: for locomotion activity in AAPA (total distance): vs control. How it is done: The effect of compound from example 9 application on changes in behavior and locomotor activity in animal model of schizophrenia was monitored. Schizophrenia-like behavior in rats was induced by dizocilpine (MK-801) administration. […] was administered in doses of 0.001 mg/kg, 0.01 mg/kg, 0.1 mg/kg and 10 mg/kg. Spatial orientation and cognitive function of rats were assessed in active allothetic place avoidance task (AAPA).
Schizophrenia-like behaviour in rats was induced by administration of dizocilpine (MK-801). Spatial navigation and cognitive functions of rats were assessed in active alothetic place avoidance task (AAPA). In addition, this task allows simultaneous assessment of potential differences in locomotory activity. The AAPA task requires rats moving on a continuously rotating (1 rpm) smooth metallic circular arena to avoid an unmarked place defined in the coordinates of the experimental room. The avoidance is reinforced by a mild electric foot-shock administered automatically upon entering the to-be avoided place.
The AAPA task is highly dependent on hippocampal function, since even a unilateral inactivation of thstructure hippocampus impairs this behaviour. Animals have to actively and repeatedly move away from the to-be-avoided place otherwise they are brought there by the arena rotation. Each AAPA session lasts 20 min and 4 sessions were conducted over 4 consecutive days.
Rats received 0.1 mg/kg MK-801 alone or co-administered with the compound from example 9 (dissolved in β-cyclodextrine) in doses of 0.001 mg/kg, 0.01 mg/kg, 0.1 mg/kg, and 10 mg/kg. Control animals received saline. […] It is for a common animal model of schizophrenia-like behaviour.
The results are shown in FIGS. 21-23, where means and standard errors of the mean (S.E.M.) are represented for individual sessions. Statistic analysis was for better clarity stated always for the last session, when an asymptotic level of performance in control animals was reached.

The test system of the next series is Long-Evans rats. Put plainly: Learned helplessness model of affective disorders. Type of series: in vivo, rat. The note with it: 1 mg/kg i.p. after inescapable shocks, tested 24 h later, p<0.01 vs LH group. On the procedure: Male Long-Evans rats weighing 350-450 g were used. Animals were housed in groups in an air-conditioned room with 12 h/12 h light/dark cycle with the lights on at 7 a.m. Water and food were available ad libitum. Animals were randomly assigned to 3 groups—control group (received no shocks), learned helplessness group (received shocks) and experimental group (received shocks and injection of compound from example 9). An experimental set-up was composed of two chambers separated by a sliding door. The transparent shock chamber (48×20×20 cm) with one entrance led to the dark chamber (25×15×15 cm) made of black plexiglass. The floor of the shock chamber consisted of metal rods. Shocks were delivered through the grid floor. A shock generator (Data acquisition MF624 multifunction I/O board for PCI, Humusoft Ltd., Czech Republic) was connected to and controlled by a computer. On the pre-treatment day rats were individually placed into the apparatus for 10-minute habituation period. The sliding door separating two chambers was removed allowing free movements between the compartments. Immediately after the habituation rats were confined to the shock chamber for 1 hour. Inescapable shocks (72 V) of 10 s duration were delivered at 50 s intervals. Afterwards animals were injected i.p. with compound from example 9 in dose of 1 mg/kg. […] The number of escapes was recorded. […]

Entries after “also recorded” stand apart in the source; their conditions may differ.

On to `CC(=O)[C@H]1CC[C@H]2[C@@H]3CC[C@@H]4C[C@H](OC(=O)[C@@H](N)CCC(=O)O)CC[C@]4(C)[C@H]3CC[C@]12C` [Example 9, 20-Oxo-5β-pregnan-3α-yl L-glutamyl 1-ester], for which the “short-term body weight gain” value in the series on Long-Evans male rats (1 mg/kg i.p. (lower dose), 5 days) is “failed to affect short-term body weight gain”; with Long-Evans male rats (100 mg/kg i.p. (higher dose), 5 days), “tended to decrease it slightly”. In addition, in the series with Long-Evans male rats (100 mg/kg i.p.), the “time to spontaneous awakening” value came out at 4 h. The “locomotor activity on the day of application” value in the series with Long-Evans male rats (100 mg/kg i.p., 15 minutes after injection) is on record as “decreased locomotor activity”. In addition, in the series with Long-Evans male rats (100 mg/kg i.p., 45 minutes after injection), the anesthetic effect result was “gradually changed into anesthesia of animals”. In addition, the “weight of body organs (brain, heart, liver, spleen, kidneys)” value in the series on Long-Evans male rats (1 and 100 mg/kg i.p., autopsy on day 5) is “no differences between controls and animals treated with the compound from example 9”. In addition, the “signs of acute toxicity” value in the series with Long-Evans male rats (rat, i.p., doses up to 100 mg/kg, 5 days) was “does not exhibit any signs of acute toxicity; also recorded: absense of any signs of acute toxicity”. Also, the “hypolocomotion in open field after repeated social defeat” value in the series on mice (ICR) is “reduced a hypolocomotion in an open field induced by agonistic interactions in mice”. Besides, the “MK-801-induced deficit in number of errors in AAPA” value in the series on rats (Example 9 0.001, 0.01, 0.1 and 10 mg/kg + MK-801 0.1 mg/kg) is on record as “reversed this deficits at all doses”. The “locomotion activity in AAPA (total distance)” value in the series on rats (Example 9 0.001, 0.01 and 0.1 mg/kg + MK-801 0.1 mg/kg) was “showed neither increase nor decrease of locomotion activity”; with rats (Example 9 10 mg/kg + MK-801 0.1 mg/kg) it was “increased locomotor activity compared to controls”. The “MK-801-induced deficit in maximum time of avoidance in AAPA” value in the series with rats (Example 9 0.001, 0.01 and 10 mg/kg + MK-801 0.1 mg/kg) was “reversed this deficit”. In the series with Long-Evans rats, the “number of escapes (learned helplessness)” value is on record as “significantly increased number of escapes”.

The record behind these values is patent publication US8575376B2, “Steroide anionic compounds, method of their production, usage and pharmaceutical preparation involving them” (Ustav Organicke Chemie A Biochemie Akademie Ved Ceske …, priority 2009, dated 2013).
